Laboratory results taken from patent US9463242B2, “Methods for treating prostate cancer” (UNIVERSITY OF ROCHESTER, priority 2011, dated 2016).
“Also recorded” adds a separate entry of the source. Where two headings read alike, the source gives them in different places. Each block holds one compound with its values, some of them ahead of it.

Key:
[1] = tested on: primary cultured human stromal cells (ps-1); experiment: TGF-β1 treatment of primary cultured human prostate stromal cells, α-SMA and calponin staining; format: cell-based; conditions: different concentrations of TGF-β1 for 1 to 5 days
Protocol: (§1) In FIG. 5a, the expression of TGF-β1 was investigated by IHC staining. The decreased expression of TGF-β1 was found in pes-ARKO epithelium. […] In FIG. 5c, to evaluate the TGF-β1 effect on the differentiation of smooth muscle cells, the primary cultured human prostate stromal cells were treated with different doses of TGF-β1. The expression of smooth muscle α-actin, as shown in FIG. 5c and FIG. 5d, and calponin, as shown in FIG. 5e and FIG. 5f, were detected following treatment for 1 to 5 days.
(§2) The expression of TGF-β1 (FIG. 5a) and TGF-β1 downstream signals was detected by immunohistochemistry (IHC) staining in 24 week old wild type and pes-ARKO prostate epithelium. The TGF-β1 expression and its downstream signals were lower in the epithelium of pes-ARKO mice than those from wild type mice. […] MyoD and Myogenin expression, which are deeply involved in the stromal smooth muscle maturation and differentiation, was also modulated by TGF-β1 stimulation (FIG. 5g).

[2] = tested on: MyoD and Myogenin expression in primary cultured human prostate stromal cells; experiment: Expression of smooth muscle maturation genes after TGF-β1 treatment; format: cell-based; conditions: 10 ng/ml TGF-β1 treatment
Protocol: as §1, §2

[3] = tested on: AR expression in LNCaP CD133+ cells; experiment: Induction of AR expression in LNCaP CD133+ cells; format: cell-based, human
[4] = tested on: PCa S/P cells (LNCaP CD133+); experiment: MTT growth assay of prostate cancer S/P cells treated with inhibitors; format: cell-based, human; conditions: for IC50: Homo sapiens, LNCaP; for inhibitory effect on proliferation of the S/P cells: used individually
Protocol: For an MTT assay, cells were incubated in 12- or 24-well culture plates (10^5-10^3 cells/well) and cultured. At 2, 4, and 6 days, 3-(4,5-dimethylthiazol-2-yl)-2,5-diphenyltetrazolium bromide (MTT; 0.5 mg/mL; Sigma) was added. After 2 hours of reaction, absorbances at 570 nm were measured. For soft agar colony formation assay, cell suspension (1×10^4 cells/well in 6 well culture plates) of mixture of 1.5% agarose (Cambrex Bio Science Rockland, Ill.) and 2× medium (2 ml) was overlaid onto the solidified mixture of agarose base (final agarose concentration will be 0.75%). Two mL of normal medium containing various concentrations of DHT was added on top of the solidified agarose cell layer. All conditions were performed in triplicate. The plates were incubated at 37° C. in a humidified incubator for 21 days. The colonies developed were visualized by staining with 1% crystal violet. The colonies larger than 1 mm in diameter were counted. For sphere formation assay, a single cell suspension (1×10^3, in 50 μl medium) was mixed with cold Matrigel 50 μl (kept on ice) and the mixture was placed along the rim of the 24 well with minimum triplicate experiments. The culture plates were placed in a 37° C. incubator for 10 min to let the mixture solidify and 500 μl medium was then added into the well. Cells were grown in 5% RPMI (for human PCa S/P cells) and epithelial basal medium (PrEBM) (Lonza) supplemented with growth supplement (Lonza) (for mouse cells) with addition of various concentrations of DHT (1 or 10 nM). Spheres numbers were counted after 7 to 14 days under Olympus light microscope and size differences were also examined.
The effect of combined use of these molecules to block self-renewal/proliferation of the S/P cells was tested. […] The effect of a combinations of two drugs selected among three drugs, LY294002 (inhibitor of Akt pathway), γ-TT, and 5-AZA was tested. […] The test results of the combination therapies using soft agar (FIG. 19C) and sphere formation assays (FIG. 19D) confirmed the MTT results. One method of two drug combination therapy was selected based on these three growth assays. This combination is the use of γ-TT and 5-AZA. From all the in vitro tests including an LD test, a minimum dose of these drugs that kills S/P cells was determined. This strategy was used for an in vivo study. When tumors developed the mice were castrated and ASC-J9 was injected, Two or three combinations of the drugs that target S/P population cells were administered. A tumor development curve indicated the recurrence of castration resistant tumors.

C4-2 cells = experiment: CD133+ population after Casodex treatment, C4-2; format: cell-based, human; conditions: C4-2, Casodex treatment
Protocol: (§3) In order to investigate whether S/P cell numbers increase after ADT/castration, LNCaP cells were treated with anti-androgen, Casodex, to mimic castration conditions in vitro. […] Similar experiments were performed with C4-2 and LAPC-4 cell lines.

LNCaP cells = experiment: CD133+ population after continuous Casodex treatment, LNCaP; format: cell-based, human; conditions: Casodex for 5 wks continuously
Protocol: as §3

[5] = stated as known; cited from earlier work
AR = target: T1, AR (Homo sapiens, UniProt P10275); conditions: stated as known; cited from earlier work
T1 sequence (P10275 1-920): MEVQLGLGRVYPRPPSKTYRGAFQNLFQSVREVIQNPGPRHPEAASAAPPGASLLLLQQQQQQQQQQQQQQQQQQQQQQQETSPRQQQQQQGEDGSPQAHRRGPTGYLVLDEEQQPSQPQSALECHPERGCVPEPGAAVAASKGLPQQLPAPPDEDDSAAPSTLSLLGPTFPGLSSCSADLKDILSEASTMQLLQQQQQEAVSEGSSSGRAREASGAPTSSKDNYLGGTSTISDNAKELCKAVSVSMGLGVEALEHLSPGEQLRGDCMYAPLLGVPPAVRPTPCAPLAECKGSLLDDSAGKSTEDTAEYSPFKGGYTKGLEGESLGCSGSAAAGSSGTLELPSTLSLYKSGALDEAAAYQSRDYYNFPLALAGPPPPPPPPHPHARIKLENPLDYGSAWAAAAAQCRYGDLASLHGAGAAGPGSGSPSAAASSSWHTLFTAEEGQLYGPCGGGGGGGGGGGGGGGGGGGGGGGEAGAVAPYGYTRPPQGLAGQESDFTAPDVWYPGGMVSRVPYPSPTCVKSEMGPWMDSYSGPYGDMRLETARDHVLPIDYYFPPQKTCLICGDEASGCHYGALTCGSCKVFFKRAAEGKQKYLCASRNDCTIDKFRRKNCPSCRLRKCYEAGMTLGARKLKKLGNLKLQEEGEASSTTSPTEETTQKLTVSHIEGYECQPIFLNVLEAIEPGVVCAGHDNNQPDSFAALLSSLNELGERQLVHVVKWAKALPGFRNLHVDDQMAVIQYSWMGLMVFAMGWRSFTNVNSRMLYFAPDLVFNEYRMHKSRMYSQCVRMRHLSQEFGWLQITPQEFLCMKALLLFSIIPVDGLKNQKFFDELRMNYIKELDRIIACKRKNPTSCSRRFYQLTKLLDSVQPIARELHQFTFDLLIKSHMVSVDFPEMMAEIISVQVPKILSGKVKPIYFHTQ

Compound: TGF-β1: TGF-β1 protein used to treat primary cultured human prostate stromal cells
- number of mature stromal smooth muscle cells (α-SMA and calponin staining) [1]: significantly dependent on the higher concentration and longer duration
- MyoD and Myogenin expression [2]: modulated

Compound: Nc1ncn([C@H]2C[C@H](O)[C@@H](CO)O2)c(=O)n1 [5-AZA, 5-aza-2′-deoxycytidine]
- AR expression [3]: Induction of AR expression
- IC50 ([4]; read-out: IC50 of the individual compound): 2500 to 5000 nM
- inhibitory effect on proliferation of the S/P cells [4]: inhibits proliferation

Compound: CC(O)(CS(=O)(=O)c1ccc(F)cc1)C(=O)Nc1ccc(C#N)c(C(F)(F)F)c1 (stereo not drawn) [Casodex]
- CD133+ population cells (C4-2 cells): not as significant as in LNCaP cells
- CD133+ population cells (LNCaP cells): significantly increased; also recorded: increase

- IC50 ([4]; LY294002 + γ-TT + 5-AZA together, S/P cells, MTT, read-out: IC50 of the individual compound when three compounds were used together): < 1000 nM
- IC50 ([4]; compound used alone, S/P cells, MTT, read-out: IC50 of the individual compound): 2500 to 5000 nM
Compound: O=c1cc(N2CCOCC2)oc2c(-c3ccccc3)cccc12 [LY294002]

Compound: COc1ccc(/C=C/C(=O)/C=C(O)/C=C/c2ccc(OC)c(OC)c2)cc1OC [ASC-J9]
- toxicity [5]: without toxicity
- AR degrading activity (AR): AR degrading activity

Compound: CC(C)=CCC/C(C)=C/CC/C(C)=C/CC[C@]1(C)CCc2cc(O)c(C)c(C)c2O1 [γ-TT, γ-tocotrienol]
- inhibitory effect on proliferation of the S/P cells [4]: inhibitory effect
